Tests used:
Format in all cases: functional
[1] = test system: Rattus norvegicus; experiment: Percent salinte-treated controls were evaluated against Pneumocystis carinii in immunosuppressed rats at a dose of 22 umol/kg/day administered by tail vein injection.
[2] = test system: Rattus norvegicus; experiment: In vivo toxicity against Pneumocystis carinii in immunosuppressed rats at a dose of 2.7 umol/kg/day administered by tail vein injection.
[3] = test system: Rattus norvegicus; experiment: Percent salinte-treated controls were evaluated against Pneumocystis carinii in immunosuppressed rats at a dose of 11 umol/kg/day administered orally.
[4] = test system: Rattus norvegicus; experiment: Percent salinte-treated controls were evaluated against Pneumocystis carinii in immunosuppressed rats at a dose of 5.5 umol/kg/day administered orally.
[5] = test system: Rattus norvegicus; experiment: In vivo toxicity against Pneumocystis carinii in immunosuppressed rats at a dose of 11 umol/kg/day administered by tail vein injection.
[6] = test system: Rattus norvegicus; experiment: Percent salinte-treated controls were evaluated against Pneumocystis carinii in immunosuppressed rats at a dose of 11 umol/kg/day administered by tail vein injection.
[7] = test system: Rattus norvegicus; experiment: In vivo toxicity against Pneumocystis carinii in immunosuppressed rats at a dose of 11 umol/kg/day administered orally.
[8] = test system: Rattus norvegicus; experiment: In vivo toxicity against Pneumocystis carinii in immunosuppressed rats at a dose of 22 umol/kg/day administered by tail vein injection.
[9] = test system: Rattus norvegicus; experiment: In vivo toxicity against Pneumocystis carinii in immunosuppressed rats at a dose of 5.5 umol/kg/day administered orally.
[10] = test system: Rattus norvegicus; experiment: In vivo toxicity against Pneumocystis carinii in immunosuppressed rats at a dose of 0.3 umol/kg/day administered by tail vein injection.
[11] = test system: Rattus norvegicus; experiment: Percent salinte-treated controls were evaluated against Pneumocystis carinii in immunosuppressed rats at a dose of 0.3 umol/kg/day administered by tail vein injection.
[12] = test system: Rattus norvegicus; experiment: Percent salinte-treated controls were evaluated against Pneumocystis carinii in immunosuppressed rats at a dose of 5.5 umol/kg/day administered by tail vein injection.
[13] = test system: Rattus norvegicus; experiment: In vivo toxicity against Pneumocystis carinii in immunosuppressed rats at a dose of 33 umol/kg/day administered orally.
[14] = test system: Rattus norvegicus; experiment: In vivo toxicity against Pneumocystis carinii in immunosuppressed rats at a dose of 5.5 umol/kg/day administered by tail vein injection.
[15] = test system: Rattus norvegicus; experiment: Percent salinte-treated controls were evaluated against Pneumocystis carinii in immunosuppressed rats at a dose of 33 umol/kg/day administered orally.
[16] = test system: Rattus norvegicus; experiment: Percent salinte-treated controls were evaluated against Pneumocystis carinii in immunosuppressed rats at a dose of 2.7 umol/kg/day administered by tail vein injection.
[17] = test system: Rattus norvegicus; experiment: In vivo toxicity against Pneumocystis carinii in immunosuppressed rats at a dose of 22 umol/kg/day administered orally.
[18] = test system: Rattus norvegicus; experiment: Percent salinte-treated controls were evaluated against Pneumocystis carinii in immunosuppressed rats at a dose of 22 umol/kg/day administered orally.
[19] = test system: Rattus norvegicus; experiment: In vivo toxicity against Pneumocystis carinii in immunosuppressed rats at a dose of 66.3 umol/kg/day administered orally.
[20] = test system: Rattus norvegicus; experiment: Percent salinte-treated controls were evaluated against Pneumocystis carinii in immunosuppressed rats at a dose of 39.8 umol/kg/day administered orally.
[21] = test system: Rattus norvegicus; experiment: In vivo toxicity against Pneumocystis carinii in immunosuppressed rats at a dose of 13.3 umol/kg/day administered by tail vein injection.
[22] = test system: Rattus norvegicus; experiment: In vivo toxicity against Pneumocystis carinii in immunosuppressed rats at a dose of 26.6 umol/kg/day administered by tail vein injection.
[23] = test system: Rattus norvegicus; experiment: In vivo toxicity against Pneumocystis carinii in immunosuppressed rats at a dose of 39.8 umol/kg/day administered orally.
[24] = test system: Rattus norvegicus; experiment: Percent salinte-treated controls were evaluated against Pneumocystis carinii in immunosuppressed rats at a dose of 13.3 umol/kg/day administered by tail vein injection; Not available
[25] = test system: Rattus norvegicus; experiment: Percent salinte-treated controls were evaluated against Pneumocystis carinii in immunosuppressed rats at a dose of 0.03 umol/kg/day administered by tail vein injection.
[26] = test system: Rattus norvegicus; experiment: In vivo toxicity against Pneumocystis carinii in immunosuppressed rats at a dose of 0.03 umol/kg/day administered by tail vein injection.
[27] = test system: Rattus norvegicus; experiment: Percent salinte-treated controls were evaluated against Pneumocystis carinii in immunosuppressed rats at a dose of 66.3 umol/kg/day administered orally.

SMILES	Saline control [1] [%]	Toxicity [2]	Saline control [3] [%]	Saline control [4] [%]	Toxicity [7]	Toxicity [8]	Toxicity [9]	Toxicity [10]	Saline control [11] [%]	Toxicity [13]	Saline control [15] [%]	Saline control [16] [%]	further results
N=C(NO)c1ccc(-c2ccc(-c3ccc(/C(N)=N\O)cc3)o2)cc1	0.67	0	197.6	127	0	1	0	0	203.6	0	3.1	54.4	Toxicity [5]: 1; Saline control [6]: 1.37%; Saline control [12]: 42.3%; Toxicity [14]: 1
CCONC(=N)c1ccc(-c2ccc(-c3ccc(C(=N)NOCC)cc3)o2)cc1	104.7					1				0	121.5		
CONC(=N)c1ccc(-c2ccc(-c3ccc(C(=N)NOC)cc3)o2)cc1 [PAFURAMIDINE]	14.3		34.7	264.2	0	0	0			0	1.82		Toxicity [17]: 0; Saline control [18]: 12%
N=C(N)c1ccc(-c2ccc(-c3ccc(C(=N)N)cc3)o2)cc1 [FURAMIDINE]		0						0	6.92			7.26	Toxicity [19]: 0; Saline control [20]: 42.3%; Toxicity [21]: 0; Toxicity [22]: 1; Toxicity [23]: 0; Saline control [24]: 0.79%; Saline control [25]: 26.3%; Toxicity [26]: 0; Saline control [27]: 25.2%
